PMC8002893, “Influence of Complexation of Thiosemicarbazone Derivatives with Cu (II) Ions on Their Antitumor Activity against Melanoma Cells” (International Journal of Molecular Sciences, 2021)

Assays:
[1] = tested on: MLH1; assay: qRT-PCR gene expression in A375 cells: MLH1; assay type: cell-based, human; settings: A375, 24 h, concentration corresponding to IC50; RQ = 2^-ΔΔCt vs control
Description: (§1) The expression level of genes connected with DNA repair and oxidative stress response was evaluated with quantitative real-time PCR (qRT-PCR) method. The A375 cells were seeded in 6-well culture plates at a density 1 × 10^5 cells/mL and after 70–80% confluency achievement the cells were treated with CuT1, Cu10, CuT16 in concentrations corresponding to IC50 values or DMSO as vehicle in control cultures. After 24h of incubation total RNA was isolated using the Syngen Blood/Cell RNA Mini Kit (Syngen Biotech, Wroclaw, Poland). All samples were transcribed using NG dART RT-PCR reagents (EURx, Gdansk, Poland) according to the manufacturer’s instructions. The relative mRNA expression level was determined by relative quantification method (ΔΔCt) using 18S ribosomal N5 (RNA18SN5) and beta-actin (ACTB) as endogenous controls. The reference genes were selected on the basis of our preliminary studies, where RNA18SN5 and ACTB remained unaffected by the experimental conditions. The PCR was conducted in triplicate using Applied Biosystems® 7500 Fast Real-Time PCR system (Applied Biosystems, Foster City, CA, USA) and SG qPCR Master Mix (2×) (EURx, Gdansk, Poland) in accordance with the manufacturer’s protocol. Data was presented and analysed as RQ values (RQ = 2^−ΔΔCt).

[2] = tested on: A375 human melanoma cells; assay: MTT cell viability assay, A375 melanoma; assay type: cell-based
Description: (§2) The evaluation of cytotoxicity of tested compounds was carried out on the G361, A375, and SK-MEL-28 human melanoma cells and BJ human normal fibroblast cells. The cell lines were obtained from American Type Culture Collection (ATCC, Manassas, VA, USA). The cells were cultured at 37 °C in the presence of 5% CO2 in atmosphere. The culture medium (Dulbecco’s Modified Eagle’s Medium for G361 and A375 and Eagle’s Minimum Essential Medium for SK-MEL-28 and BJ) was supplemented with 10% foetal bovine serum. The cells morphology was examined under inverted phase contrast microscope Nikon Eclipse Ti (Nikon, Tokyo, Japan). The authenticity of tested cell lines was verified by short tandem repeat (STR) genotyping in the Department of Forensic Medicine (Medical University of Lublin, Lublin, Poland).
(§3) The cells were seeded into 96-well plates (in concentration: BJ, A375, and SK-MEL-28—1 × 10^5 cells/mL, G361—1.5 × 10^5 cells/mL) and cultured until they reach 70–80% confluency. Then the cells were incubated with tested compounds and dacarbazine in concentrations ranging from 10 to 500 µM or DMSO as vehicle in control cultures for next 24 h (max. DMSO concentration <0.5%). The compounds cytotoxicity was evaluated with the MTT colorimetric method based on the ability of viable cells to the transformation of tetrazolium salts (3-[4,5-dimethylthiazol-2-yl]-2,5-) diphenyltetrazolium bromide, MTT) to purple formazan, by cellular dehydrogenases. After 24-h-incubation cell cultures were supplemented with 20 µL of 5 mg/mL MTT (Thermofisher, Waltham, MA, USA) stock in PBS (Corning, NY, USA), and the incubation was continued for 4 h at 37 °C. Next, the medium with MTT was removed, and the formed crystals were dissolved in 200 µL of DMSO (dimethyl sulfoxide, Avantor, Gliwice, Poland). The solution absorbency was measured at 570 nm, using a PowerWave™ xs microplate spectrophotometer (BioTek Instruments, Winooski, VT, USA). The experiment was performed three times with three replicates for each concentration of tested compounds. IC50 values were determined using the AAT Bioquest IC50 calculator [51]. On the basis of obtained IC50 values for normal and malignant cells, A375 cell line and three tested compounds (CuT1, Cu10, CuT16) were chosen for further investigation.

[3] = tested on: GPX2; assay: qRT-PCR gene expression in A375 cells: GPX2; assay type: cell-based, human; settings: A375, 24 h, concentration corresponding to IC50; RQ = 2^-ΔΔCt vs control
Description: as §1

[4] = tested on: SOD2; assay: qRT-PCR gene expression in A375 cells: SOD2; assay type: cell-based, human; settings: A375, 24 h, concentration corresponding to IC50; RQ = 2^-ΔΔCt vs control
Description: as §1

[5] = tested on: OGG1; assay: qRT-PCR gene expression in A375 cells: OGG1; assay type: cell-based, human; settings: A375, 24 h, concentration corresponding to IC50; RQ = 2^-ΔΔCt vs control
Description: as §1

[6] = tested on: ERCC; assay: qRT-PCR gene expression in A375 cells: ERCC; assay type: cell-based, human; settings: A375, 24 h, concentration corresponding to IC50; RQ = 2^-ΔΔCt vs control
Description: as §1

[7] = tested on: CAT; assay: qRT-PCR gene expression in A375 cells: CAT; assay type: cell-based, human; settings: A375, 24 h, concentration corresponding to IC50; RQ = 2^-ΔΔCt vs control
Description: as §1

[8] = tested on: A375 cells; assay: Microscopic observation of cell morphology; assay type: cell-based, human; settings: A375, 24 h, concentration corresponding to IC50
Description: The MTT test results for selected compounds were verified by microscopic observations of cell morphology. […] A large part of the cells floated in the culture medium (Figure 5).
as §2

[9] = tested on: MSH2; assay: qRT-PCR gene expression in A375 cells: MSH2; assay type: cell-based, human; settings: A375, 24 h, concentration corresponding to IC50; RQ = 2^-ΔΔCt vs control
Description: as §1

[10] = tested on: DNA of A375 cells; assay: DNA damage evaluation: number of AP sites; assay type: cell-based, human; settings: A375, 24 h, concentration corresponding to IC50; control 0.67 ± 0.08
Description: DNA damage was evaluated on the basis of a basic (AP) sites presence, that arose in response to oxidative damage or as an intermediate in base excision repair pathway. The A375 cells were seeded in 6-well culture plates at a density 1 × 10^5 cells/mL and after 70–80% confluency achievement the cells were treated with CuT1, Cu10, CuT16 in concentrations corresponding to IC50 values or DMSO as vehicle in control cultures. After 24 h of incubation genomic DNA was isolated using Syngen DNA Mini Kit (Syngen Biotech, Wroclaw, Poland) according to the manufacturer’s instruction. The concentrations of isolated DNA for all samples were equalized to 100 µg/mL. The measurements of the number of AP sites were evaluated with DNA Damage Quantification Kit (Dojindo, Japan) according to the manufacturer’s instruction. The DNA was treated with Aldehyde Reactive Probe (ARP) to tag all of the AP sites with a biotin residue. Then all of the AP sites were quantified using avidin—biotin assay. The coloured product of horseradish peroxidase conjugated to the avidin was detected at 650 nm using a PowerWave™ xs microplate spectrophotometer (BioTek Instruments, Winooski, VT, USA).

[11] = tested on: MGMT; assay: qRT-PCR gene expression in A375 cells: MGMT; assay type: cell-based, human; settings: A375, 24 h, concentration corresponding to IC50; RQ = 2^-ΔΔCt vs control
Description: as §1

[12] = tested on: XPC; assay: qRT-PCR gene expression in A375 cells: XPC; assay type: cell-based, human; settings: A375, 24 h, concentration corresponding to IC50; RQ = 2^-ΔΔCt vs control
Description: as §1

[13] = tested on: BJ human normal fibroblast cells; assay: MTT cell viability assay, BJ normal fibroblasts; assay type: cell-based; settings: MTT test, 24 h treatment
Description: as §2, §3

[14] = tested on: SK-MEL-28 human melanoma cells; assay: MTT cell viability assay, SK-MEL-28 melanoma; assay type: cell-based; settings: SK-MEL-28, MTT test, 24 h treatment
Description: as §2, §3

[15] = tested on: G361 human melanoma cells; assay: MTT cell viability assay, G361 melanoma; assay type: cell-based; settings: G361, MTT test, 24 h treatment
Description: as §2, §3

[16] = tested on: ATM; assay: qRT-PCR gene expression in A375 cells: ATM; assay type: cell-based, human; settings: A375, 24 h, concentration corresponding to IC50; RQ = 2^-ΔΔCt vs control
Description: as §1

[17] = tested on: PARP1; assay: qRT-PCR gene expression in A375 cells: PARP1; assay type: cell-based, human; settings: A375, 24 h, concentration corresponding to IC50; RQ = 2^-ΔΔCt vs control
Description: as §1

Question: For COc1ccc(C=NNC(=S)Nc2ccc(Cl)cc2)cc1OC.[Cl-].[Cl-].[Cu+2] [CuT16], which “Mean RQ MLH1 mRNA” value [1] is on record?
Answer: 0.929

Question: What about the IC50 ([2]; A375, MTT test, 24 h treatment) of the same compound?
Answer: 145 ± 19.9 µM

Question: And the “toxicity to A375 / malignant cells versus normal cells (in words)” value ([2]; from IC50 values, MTT, 24 h)?
Answer: less toxic for normal cells

Question: And the “Mean RQ GPX2 mRNA” value [3]?
Answer: 0.022

Question: What about the “Mean RQ SOD2 mRNA” value [4] of the same compound?
Answer: 1.393

Question: What about the “Mean RQ OGG1 mRNA” value [5] of the same compound?
Answer: 0.952

Question: And the “Mean RQ ERCC mRNA” value [6]?
Answer: 0.267

Question: And the “Mean RQ CAT mRNA” value [7]?
Answer: 0.387

Question: What about the “cell morphology (in words)” value [8] of the same compound?
Answer: became round and had poor adherence

Question: What about the “Mean RQ MSH2 mRNA” value [9] of the same compound?
Answer: 0.936

Question: And the AP sites number [10]?
Answer: 14.09 ± 0.44 AP/100 kbp

Question: And the “Mean RQ MGMT mRNA” value [11]?
Answer: 0.361

Question: And the “Mean RQ XPC mRNA” value [12]?
Answer: 1.438

Question: And the IC50 [13]?
Answer: 450 ± 11.7 µM

Question: And the IC50 [14]?
Answer: 478 ± 11 µM

Question: And the IC50 [15]?
Answer: > 500 µM

Question: And the “Mean RQ ATM mRNA” value [16]?
Answer: 2.724

Question: And the “Mean RQ PARP1 mRNA” value [17]?
Answer: 0.640
